Source: PubChem BioAssay (NCI)
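Where inhibition never reached the appropriate level, the endpoint shown equals the highest concentration tested. Otherwise, values were interpolated linearly from a five-concentration, 48-hour dose response in 96-well plates. TGI: total growth inhibition.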 Where a SMILES comes first, the peptide text is derived from it. [ ]: non-standard residue; d: D form. The star is where a group is joined. Phe(4-NO2) = N[CH](Cc1ccc([N+](=O)[O-])cc1)C(=O)O; Boc = CC(C)(C)OC(=O)*; OtBu = CC(C)(C)O*

How the values were obtained:
Assay in all cases: DTP human tumour cell line panel, 48 h
LOX IMVI melanoma = system: LOX IMVI melanoma
HCT-15 colon = system: HCT-15 colon
U251 CNS = system: U251 CNS
HCC-2998 colon = system: HCC-2998 colon
K-562 leukemia = system: K-562 leukemia
MCF7 breast = system: MCF7 breast
NCI-H226 lung = system: NCI-H226 lung
MDA-MB-435 = system: MDA-MB-435
DU-145 prostate = system: DU-145 prostate
TK-10 renal = system: TK-10 renal

Structure (SMILES)	TGI (LOX IMVI melanoma) [µM]	TGI (HCT-15 colon) [µM]	TGI (U251 CNS) [µM]	TGI (HCC-2998 colon) [µM]	TGI (K-562 leukemia) [µM]	TGI (MCF7 breast) [µM]	TGI (NCI-H226 lung) [µM]	TGI (MDA-MB-435) [µM]	TGI (DU-145 prostate) [µM]	TGI (TK-10 renal) [µM]
Cc1cc(S(=O)(=O)NC(=NCC(=O)NN)NN)c(S)cc1Cl	> 10	> 10	> 10	> 10	> 10	> 10	> 10	> 10	> 10	> 10
COC1(OC)N=C(N)C2(C#N)/C(=N/N(C)C)CC(C)C12C#N (stereo not given)	> 100	> 100	> 100	> 100	> 100	> 100	> 100	> 100	> 100	> 100
O=C(NCCCCl)c1c(O)c2ccccc2[nH]c1=O	> 100	> 100	> 100	> 100	> 100	> 100	> 100	> 100	> 100	> 100
COC(=O)C1(Cc2ccccc2)Cc2ccccc2C1=O (stereo not given)	> 100	> 100	85.9	> 100	> 100	> 100	> 100	53.4	> 100	> 100
Cc1nn(C(=O)c2ccccc2O)c2c1C(c1ccc(O)cc1)SC(N)=N2 (stereo not given)	> 10	> 10	> 10	> 10	> 3.53	> 10	> 6.22	> 10	> 10	> 10
COc1cc(O)c2c(c1)C(O)C(O)CC1OC1C(=O)/C=C/CC(C)OC2=O (stereo not given)	16.2	17	25	16.7	13.6	16.3	33.9	8.31	> 72.2	17.5
COC(=O)CNC(=O)/C=C/[C@H](O[Si](C)(C)C(C)(C)C)[C@H](/C=C/C(=O)NCC(=O)OC)O[Si](C)(C)C(C)(C)C	> 25	> 25	> 25	> 25	> 25	> 25	> 25	> 25	> 25	> 25
O=C(O)c1ccc(Nc2cnc3ccc(C(F)(F)F)cc3n2)cc1	24.5	36.8	59.2	19.6	51.4	> 100	29.4	72.3	69.5	44.8
N#Cc1nnc2c3c(-c4ccc(Cl)cc4)c(C#N)c(=O)[nH]c3nn2c1N	8.01	30.9	10.7	12.7	> 41.6	16.3	32.6	26.8	16.8	> 100
COC(=O)C(Cc1ccccc1)NC(=O)CCCNC(=O)OCc1ccccc1 (stereo not given)	> 100	> 100	> 100	> 100	> 100	> 100	> 100	> 100	> 100	> 100
COC(=O)C(Cc1ccc([N+](=O)[O-])cc1)NC(=O)C(CC(=O)OC(C)(C)C)NC(=O)OC(C)(C)C (stereo not given) (Boc-Asp(OtBu)-[Phe(4-NO2)]-OMe; configuration not given here)	49	> 100	> 100	> 100	> 100	> 100	> 100	> 100	> 100	> 100
CC(C)[Si]1(C(C)C)OCC2OC(n3cnc4c(N)ncnc43)C(N)C2O[Si](C(C)C)(C(C)C)O1 (stereo not given)	21.3	23.8	35.8	14.5	36.9	8.56	25.8	30.7	31.4	28.9
Clc1ncc(C(Cl)(Cl)Cl)nc1-c1ccccc1	15.4	3.42	3.3	2.9	12.4	3.44	39.4	3.54	2.96	5.39
CN(C)CCn1c(=O)c2ccc(NCCNCCO)c3c(=O)c4cc(O)ccc4n(c1=O)c23	4.42	53.8	8.27	2.18	> 30.5	6.23	5.71	6.53	4.97	21.1
CCCCC(=C=C1CCCCC1O)C1CCCN1C(=O)OC(C)(C)C (stereo not given)	32.3	32.3	29.4	36.6	34.1	31.6	34.8	30.6	31.4	29.8
COc1cc2c(cc1OC)C1Cc3ccccc3CN1CCC2 (stereo not given)	> 100	> 100	> 100	> 100	> 100	> 100	> 100	> 100	> 100	> 100

Structure (SMILES)	TGI (LOX IMVI melanoma) [µM]	TGI (HCT-15 colon) [µM]	TGI (U251 CNS) [µM]	TGI (HCC-2998 colon) [µM]	TGI (K-562 leukemia) [µM]	TGI (MCF7 breast) [µM]	TGI (NCI-H226 lung) [µM]	TGI (MDA-MB-435) [µM]	TGI (DU-145 prostate) [µM]	TGI (TK-10 renal) [µM]
C=C(CCC(C(=O)O)C1CCC2(C)C3=C(CCC12C)C1(C)CCC(O)C(C)(C)C1CC3)C(C)C (stereo not given)	89	68.5	72.8	> 100	43.3	> 100	96.3	> 100	> 100	> 100
c1ccc(COc2ncccc2C2SCCCS2)cc1	> 100	> 100	> 100	> 100	> 100	> 100	> 100	> 100	> 100	> 100
CSC1(SC)CCCCCCCCCCC1	36.4	> 100	> 100	40.5	> 100	38.1	> 100	> 100	> 100	> 100
CN(C)CCNc1nc2ccccc2c2c1C(=O)c1ccccc1-2	0.961	1.57	2.83	0.511	0.396	1.87	0.862	1.12	1.51	10.5
CCOc1cc(C=O)ccc1O	> 100	> 100	> 100	> 100	> 100	> 100	> 100	> 100	> 100	> 100
C[C@@H](C[C@@H](O)[C@H](O)C(C)(C)O)[C@H]1CC=C2[C@]3(C)[C@H](O)C[C@H]4C(C)(C)[C@H](O)CC[C@]4(C)[C@H]3CC[C@@]21C	30	36.1	32.1	37.9	41.7	36.7	41.1	31.4	30.8	32.4
COc1cc(C2S/C(=C/c3ccccc3)C(=O)N2c2ccc(Cl)cc2)cc(OC)c1OC (stereo not given)	52.4	> 100	> 94.1	> 100	> 100	> 100	> 100	24.8	> 100	> 100
CCOC(=O)Cc1nc2c(=O)[nH]cnc2n1C1OC(COC(C)=O)C(OC(C)=O)C1OC(C)=O (stereo not given)	> 100	> 100	> 100	> 100	> 100	> 100	> 100	> 100	> 100	> 100
O=C(CCCN1CCc2[nH]c3cc(F)ccc3c2C1)c1ccc(F)cc1	17.5	31.3	29.8	11.9	22.5	18.3	38.7	25.6	26.1	24.9
CCC1(O)CN(CCOC)[C@H]2C[C@@H]1C(=O)c1[nH]c3ccccc3c12 (stereo not given in full)	> 100	> 100	> 100	> 100	> 100	> 100	> 100	> 100	> 100	> 100
CNC(=O)OCC1=C(COC(=O)NC)CN(c2ccccc2)C1	> 100	> 100	> 100	> 100	> 100	> 100	> 100	> 100	> 100	> 100
CCOP(=O)(OCC)C(F)(F)CC1CCCCC1	> 10	> 10	> 10	> 10	> 10	> 10	> 10	> 10	> 10	> 10
COc1ccccc1OC/C(N=Cc1ccncc1)=N/NC(=O)c1ccncc1	> 100	> 100	> 100	> 100	> 100	> 100	> 100	> 100	> 100	> 100
CN(Cc1nc2c(N)nc(N)nc2nc1N)c1ccc(C(=O)NC(CCC(=O)O)C(=O)O)cc1 (stereo not given)	> 100	> 100	> 100	> 100	> 100	> 100	> 100	> 100	> 100	> 100
Cc1ccc(Nc2nnc3n2S(=O)(=O)c2cc(C)c(Cl)cc2S3)cc1	65.2	51.3	59.2	55.8	23.8	> 100	37.4	70.4	> 100	> 100
COc1ccc(C=O)cc1Oc1ccc(C[C@H]2c3c(cc(OC)c4c3Oc3cc5c(cc3O4)CCN(C)C5=O)CCN2C)cc1	21.8	27.5	22.8	15.1	12.3	22.5	16.8	21.7	25.2	18.4
